Source: patent US8802861B2, “Thiazole derivatives and use thereof” (Merck Serono SA, priority 2004, dated 2014)

system: Class I PI3-kinases; experiment: not given; conditions: Fruman et al., 1998; read-out: IC50 against each of the various Class I PI3-kinases; cited from earlier work

Row | SMILES | IC50
1 | COC[C@H]1OC(=O)c2coc3c2[C@@]1(C)C1=C(C3=O)[C@@H]2CCC(=O)[C@@]2(C)C[C@H]1OC(C)=O [wortmannin] | 1 to 10 nM

target: PI3Kγ (Homo sapiens (Human), UniProt P48736); experiment: High Throughput PI3K Lipid Kinase Assay (scintillation proximity assay); assay type: biochemical; conditions: Human recombinant GST-PI3Kγ, SPA
Sequence (P48736 whole entry): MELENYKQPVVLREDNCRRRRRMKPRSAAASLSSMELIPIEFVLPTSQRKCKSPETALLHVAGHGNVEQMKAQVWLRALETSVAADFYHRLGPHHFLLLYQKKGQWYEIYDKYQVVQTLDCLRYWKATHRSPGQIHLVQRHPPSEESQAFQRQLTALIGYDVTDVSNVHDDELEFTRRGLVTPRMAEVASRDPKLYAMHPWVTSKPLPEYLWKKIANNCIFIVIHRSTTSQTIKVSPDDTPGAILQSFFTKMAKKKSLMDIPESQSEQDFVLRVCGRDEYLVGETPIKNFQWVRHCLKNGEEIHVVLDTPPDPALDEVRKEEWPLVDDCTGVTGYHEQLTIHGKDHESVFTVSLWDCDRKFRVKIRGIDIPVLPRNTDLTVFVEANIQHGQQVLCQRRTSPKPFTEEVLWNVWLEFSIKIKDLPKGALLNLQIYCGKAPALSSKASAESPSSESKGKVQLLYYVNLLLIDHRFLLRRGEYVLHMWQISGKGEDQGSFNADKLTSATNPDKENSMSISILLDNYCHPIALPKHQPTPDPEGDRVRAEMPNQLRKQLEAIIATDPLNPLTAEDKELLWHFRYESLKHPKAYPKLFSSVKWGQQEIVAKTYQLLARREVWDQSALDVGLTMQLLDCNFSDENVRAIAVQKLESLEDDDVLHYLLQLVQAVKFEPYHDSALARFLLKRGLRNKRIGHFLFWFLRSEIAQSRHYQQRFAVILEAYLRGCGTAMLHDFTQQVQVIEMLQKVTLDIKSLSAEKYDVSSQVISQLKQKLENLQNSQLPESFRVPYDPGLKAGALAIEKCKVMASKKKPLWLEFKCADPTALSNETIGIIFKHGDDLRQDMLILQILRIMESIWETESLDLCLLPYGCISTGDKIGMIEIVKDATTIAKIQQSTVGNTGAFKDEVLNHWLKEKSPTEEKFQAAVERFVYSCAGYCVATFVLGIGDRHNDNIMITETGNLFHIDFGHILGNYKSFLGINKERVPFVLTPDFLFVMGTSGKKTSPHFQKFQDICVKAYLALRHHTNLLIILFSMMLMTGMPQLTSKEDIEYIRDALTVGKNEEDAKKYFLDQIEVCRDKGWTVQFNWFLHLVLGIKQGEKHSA
Text: a) High Throughput PI3K Lipid Kinase Assay (Binding Assay): The efficacy of compounds of the invention in inhibiting the PI3K induced-lipid phosphorylation may be tested in the following binding assay. The assay combines the scintillation proximity assay technology (SPA, Amersham) with the capacity of neomycin (a polycationic antibiotic) to bind phospholipids with high affinity and specificity. The Scintillation Proximity Assay is based on the properties of weakly emitting isotopes (such as ^3H, ^125I, ^33P). Coating SPA beads with neomycin allows the detection of phosphorylated lipid substrates after incubation with recombinant PI3K and radioactive ATP in the same well, by capturing the radioactive phospholipids to the SPA beads through their specific binding to neomycin. […] After incubation at room temperature for 180 minutes, with gentle agitation, the reaction is stopped by addition of 60 μl of a solution containing 100 μg of neomycin-coated PVT SPA beads in PBS containing ATP 10 mM and EDTA 5 mM. The assay is further incubated at room temperature for 60 minutes with gentle agitation to allow binding of phospholipids to neomycin-SPA beads. After precipitation of the neomycin-coated PVT SPA beads for 5 minutes at 1500×g, radioactive PtdIns(3)P is quantified by scintillation counting in a Wallac MicroBetaTM plate counter. The values indicated in Table I below refer to the IC50 (nM) with respect to PI3Kγ, i.e. the amount necessary to achieve 50% inhibition of said target. Said values show a considerable inhibitory potency of thiazole compounds with regard to PI3Kγ.

Row | SMILES | IC50
2 | CC(=O)Nc1nc(C)c(-c2csc(N3CCCCC3)n2)s1 [Example 5, N-(4-methyl-2-piperidin-1-yl-4,5-bi-1,3-thiazol-2-yl)acetamide] | 630 nM
3 | C=CCNc1nc(-c2sc(NC(C)=O)nc2C)cs1 [Example 6, N-[2-(allylamino)-4-methyl-4,5-bi-1,3-thiazol-2-yl]acetamide] | 202 nM
4 | CC(=O)Nc1nc(C)c(-c2csc(Nc3cccnc3)n2)s1 [Example 7, N-[4-methyl-2-(Pyridin-3-ylamino)-4,5-bi-1,3-thiazol-2-yl]acetamid] | 94 nM
5 | CC(=O)Nc1nc(C)c(-c2csc(N)n2)s1 [Example 14, N-(2-amino-4-methyl-4,5-bi-1,3-thiazol-2-yl)acetamide] | 575 nM
6 | CC(=O)Nc1nc(C)c(-c2csc(N3CCOCC3)n2)s1 [Example 16, N-(4-methyl-2-morpholin-4-yl-4,5-bi-1,3-thiazol-2-yl)acetamide] | 844 nM
7 | CC(=O)Nc1nc(C)c(-c2csc(NC(C)(C)C)n2)s1 [Example 22, N-[2-(tert-butylamino)-4-methyl-4,5-bi-1,3-thiazol-2-yl]acetamide] | 314 nM
8 | CC(=O)Nc1nc(C)c(-c2csc(NCCN3CCOCC3)n2)s1 [Example 31, N-{4-methyl-2-[(2-morpholin-4-ylethyl)amino]-4,5-bi-1,3-thiazol-2-yl}acetamide] | 871 nM
9 | COCCNc1nc(-c2sc(NC(C)=O)nc2C)cs1 [Example 33, N-{2-[(2-methoxyethyl)amino]-4-methyl-4,5-bi-1,3-thiazol-2-yl}acetamide] | 355 nM
10 | CC(=O)Nc1nc(C)c(-c2csc(NCC(O)c3ccccc3)n2)s1 (centres unmarked) [Example 37, N-{2-[(2-hydroxy-2-phenylethyl)amino]-4-methyl-4,5-bi-1,3-thiazol-2-yl}acetamide] | 70 nM
11 | CC(=O)Nc1nc(C)c(-c2csc(Nc3cccnc3F)n2)s1 [Example 43, N-{2-[(2-fluoropyridin-3-yl)amino]-4′-methyl-4,5′-bi-1,3-thiazol-2′-yl}acetamide] | 38 nM
12 | CCOC(CCNc1nc(-c2sc(NC(C)=O)nc2C)cs1)OCC [Example 45, N-{2-[(3,3-diethoxypropyl)amino]-4′-methyl-4,5′-bi-1,3-thiazol-2′-yl}acetamide] | 612 nM
13 | CC(=O)Nc1nc(C)c(-c2csc(NCCc3nnc(O)o3)n2)s1 [Example 56, 5-(2-{[2′-(acetylamino)-4′-methyl-4,5′-bi-1,3-thiazol-2-yl]amino}ethyl)-1,3,4-oxadiazol-2-olate] | 377 nM
14 | CC(=O)NCCNc1nc(-c2sc(NC(C)=O)nc2C)cs1 [Example 77, N-(2-{[2-(acetylamino)ethyl]amino}-4′-methyl-4,5′-bi-1,3-thiazol-2′-yl)acetamide] | 189 nM
15 | CC(=O)Nc1nc(C)c(-c2csc(Nc3cccc(CCC(=O)O)c3)n2)s1 [Example 136, 3-(3-{[2′-(acetylamino)-4′-methyl-4,5′-bi-1,3-thiazol-2-yl]amino}phenyl) propanoic acid] | 64 nM

system: Akt/PKB phosphorylation in Raw 264-7 macrophages; experiment: Cell based ELISA to monitor PI3K inhibition (Akt/PKB phosphorylation after Complement 5a stimulation); conditions: Mus musculus, RAW264.7, read-out: Cell Assay (P-Akt, Elisa) IC50 [μM]
Description: b) Cell Based ELISA to Monitor PI3K Inhibition:
The efficacy of compounds of the invention in inhibiting the PI3K induced AKt/PKB phosphorylation may be tested in the following cell based assay.
Measurement of Akt/PKB phosphorylation in macrophages after stimulation with Complement 5a: Raw 264: Raw 264-7 macrophages (cultured in DMEM-F12 medium containing 10% Fetal Calf serum and antibiotics) are plated at 20'000 cells/well in a 96 MTP 24 h before cell stimulation. Previous to the stimulation with 50 nM of Complement 5a during 5 minutes, Cells are serum starved for 2 h, and pretreated with inhibitors for 20 minutes. After stimulation cells are fixed in 4% formaldehyde for 20 minutes and washed 3 times in PBS containing 1% Triton X-100 (PBS/Triton). Endogenous peroxidase is blocked by a 20 minutes incubation in 0.6% H2O2 and 0.1% Sodium Azide in PBS/Triton and washed 3 times in PBS/Triton. Cells are then blocked by 60 minutes incubation with 10% fetal calf serum in PBS/Triton. Next, phosphorylated AKt/PKB is detected by an overnight incubation at 4° C. with first antibody (anti phospho Serine 473 Akt IHC, Cell Signaling) diluted 800-fold in PBS/Triton, containing 5% bovine serum albumin (BSA). After 3 washes in PBS/Triton, cells are incubated for 60 minutes with a peroxidase conjugated goat-anti-rabbit antibody (1/400 dilution in PBS/Triton, containing 5% BSA), washed 3 times in PBS/Triton, and 2 times in PBS and further incubated in 100 μl of substrate reagent solution (R&D) for 20 minutes. The reaction is stopped by addition of 50 μl of 1 M SO4H2 and absorbance is read at 450 nm.
The values indicated in Table II below reflect the percentage of inhibition of AKT phoshorylation as compared to basal level. Said values show a clear effect of the thiazole compounds on the activation of AKT phosphorylation in macrophages.

Row | SMILES | IC50
16 | CC(=O)Nc1nc(C)c(-c2csc(Nc3cccc(-c4nnc(O)o4)c3)n2)s1 [Example 53, N-(2-{[3-(5-hydroxy-1,3,4-oxadiazol-2-yl)phenyl]amino}-4′-methyl-4,5′-bi-1,3-thiazol-2′-yl)acetamide] | 1.51 µM

same assay, conditions: Mus musculus, RAW264.7; Raw 264-7 macrophages, 50 nM Complement 5a; read-out: Cell Assay (P-Akt, Elisa) IC50

Row | SMILES | IC50
17 | CC(=O)Nc1nc(C)c(-c2csc(Nc3cccc(C(=O)O)c3)n2)s1 [Example 1] | 3.18 µM
18 | CC(=O)Nc1nc(C)c(-c2csc(Nc3cccnc3)n2)s1 [Example 7, N-[4-methyl-2-(Pyridin-3-ylamino)-4,5-bi-1,3-thiazol-2-yl]acetamid] | 1.64 µM
19 | CC(=O)Nc1nc(C)c(-c2csc(Nc3ccc(Cl)nc3)n2)s1 [Example 24, N-{2-[(6-chloropyridin-3-yl)amino]-4-methyl-4,5-bi-1,3-thiazol-2-yl}acetamide] | 0.66 µM
20 | CC(=O)Nc1nc(C)c(-c2csc(NCCC(N)=O)n2)s1 [Example 84] | 1.84 µM
